According to the supplement of paper PMC11208160:

Assay: recombinant barcode read abundance after kanamycin selection (control-corrected) (log10(CPM+1)); higher = more efficient recombination; sequences stand for … in AGTGCAGAGAAAATCGGCCAGTTTTCTCTGCCTGCAGTCCGCATGCCGT…AGATTTATGCAGCGGACTGCCTTTCTCCCAAAGTGATAAACCGGACAGTATCATGGACCGGTTTTCCCGGTAATCCGTATTTGCAAGGTTGGTTTCACT; site = the 11-nt target
Method in brief: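 Two replicates per condition were plated: chloramphenicol/ampicillin LB agar for the control, and chloramphenicol/ampicillin/kanamycin with 0.1 mM IPTG for selection. The pooled E. coli screen behind them paired targets with IS621 bridge RNA target-binding loops. Recombination efficiency is expressed from averaged, control-corrected barcode counts per million at recombinant junctions, as log10(CPM+1).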
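Note: IS621 recombinase and bridge RNA in Escherichia coli cells.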

| Sequence | recombinant barcode read abundance (log10) |
| --- | --- |
| CTTTCCTCTTGGGTTCTAACCTGTTGCTT (site CATTACTCTAA) | 0.2 |
| CTTTCCTCTTGGGTTCTAACCTGTTGCTT (site CTTTCCTCTAA) | 0.92 |
| CTTTCGTCTTGGGTTCTAACCTGTTGCCT (site CTTTCACCTAG) | 0.0235 |
| CTTTCGTCTTGGGTTCTAACCTGTTGCCT (site CTTTCGTCTAG) | 0.0335 |
| CTTTGAGCTTGGGTTCTAACCTGTTGCAT (site CTTCGGGCTAT) | 0.0604 |
| CTTTGAGCTTGGGTTCTAACCTGTTGCAT (site CTTTGAGCTAT) | 0.632 |
| CTTTGATCTTGGGTTCTAACCTGTTGCGT (site CATCGATCTAC) | 0.0142 |
| CTTTGATCTTGGGTTCTAACCTGTTGCGT (site CTTTGATCTAC) | 1.29 |
| GAAACAGCTTGGGTTCTAACCTGTTGCCT (site GAAACAGCTAG) | 0.725 |
| GAAACAGCTTGGGTTCTAACCTGTTGCCT (site GACACAGCTAG) | 0.0141 |
| GAAACAGCTTGGGTTCTAACCTGTTGCCT (site GAGACAGCTAG) | 0.281 |
| GAAACAGCTTGGGTTCTAACCTGTTGCCT (site GATACAGCTAG) | 0.158 |
| GAAAGTCCTTGGGTTCTAACCTGTTGCCT (site GAAAATCCTAG) | 0.0602 |
| GAAAGTCCTTGGGTTCTAACCTGTTGCCT (site GAAACTCCTAG) | 0.0877 |
| GAAAGTCCTTGGGTTCTAACCTGTTGCCT (site GAAAGTCCTAG) | 0.917 |
| GAAAGTCCTTGGGTTCTAACCTGTTGCCT (site GAAATTCCTAG) | 0.0822 |
| GAAATACCTTGGGTTCTAACCTGTTGCGG (site AGCTATGCTAG) | 0.131 |
| GAAATACCTTGGGTTCTAACCTGTTGCGG (site GAAATACCTCC) | 1.41 |
| GAACAGCCTTGGGTTCTAACCTGTTGCGT (site ATTGCTACTTG) | 0.278 |
| GAACAGCCTTGGGTTCTAACCTGTTGCGT (site GAACAGCCTAC) | 0.943 |
| GAACCACCTTGGGTTCTAACCTGTTGCCT (site GAACCACCTAG) | 1.75 |
| GAACCACCTTGGGTTCTAACCTGTTGCCT (site TCACCACCTAG) | 0.133 |

| Sequence | recombinant barcode read abundance (log10) |
| --- | --- |
| GAACCTACTTGGGTTCTAACCTGTTGCCG (site GAACCTACTCG) | 0.583 |
| GAACCTACTTGGGTTCTAACCTGTTGCCG (site GAGCCTACTAG) | 0.172 |
| GAACCTACTTGGGTTCTAACCTGTTGCGA (site GAACCTACTCC) | 0.0825 |
| GAACCTACTTGGGTTCTAACCTGTTGCGA (site GAACCTACTTC) | 1.87 |
| GAACCTCCTTGGGTTCTAACCTGTTGCAT (site GAACCTCCTAT) | 1.94 |
| GAACCTCCTTGGGTTCTAACCTGTTGCAT (site TGCGTAACTTG) | 0.0548 |
| GAACGACCTTGGGTTCTAACCTGTTGCTG (site GAACGACCTAA) | 0.0602 |
| GAACGACCTTGGGTTCTAACCTGTTGCTG (site GAACGACCTCA) | 1.16 |
| GAACGATCTTGGGTTCTAACCTGTTGCCT (site GAACCTTCTAG) | 0.148 |
| GAACGATCTTGGGTTCTAACCTGTTGCCT (site GAACGATCTAG) | 0.397 |
| GAACGCTCTTGGGTTCTAACCTGTTGCCA (site AGGTCTACTAA) | 0.0972 |
| GAACGCTCTTGGGTTCTAACCTGTTGCCA (site GAACGCTCTTG) | 0.265 |
| GAACTTGCTTGGGTTCTAACCTGTTGCCT (site GAACTTGCTAG) | 1.24 |
| GAACTTGCTTGGGTTCTAACCTGTTGCCT (site GCCCTTGCTAG) | 0.176 |
| GAAGAGACTTGGGTTCTAACCTGTTGCCT (site GAAAACACTAG) | 0.0941 |
| GAAGAGACTTGGGTTCTAACCTGTTGCCT (site GAAGAGACTAG) | 1.57 |
| GAAGCATCTTGGGTTCTAACCTGTTGCCT (site GAAGCATCTAG) | 1.54 |
| GAAGCATCTTGGGTTCTAACCTGTTGCCT (site GATGCCTCTAG) | 0.123 |
| GAAGGGCCTTGGGTTCTAACCTGTTGCCT (site GAAGAGCCTAG) | 0.202 |
| GAAGGGCCTTGGGTTCTAACCTGTTGCCT (site GAAGCGCCTAG) | 0.225 |
| GAAGGGCCTTGGGTTCTAACCTGTTGCCT (site GAAGGGCCTAG) | 0.723 |
| GAAGGGCCTTGGGTTCTAACCTGTTGCCT (site GAAGTGCCTAG) | 0.0531 |

| Sequence | recombinant barcode read abundance (log10) |
| --- | --- |
| GAAGTACCTTGGGTTCTAACCTGTTGCCT (site AAAGTACCTAG) | 0.881 |
| GAAGTACCTTGGGTTCTAACCTGTTGCCT (site CAAGTACCTAG) | 0.275 |
| GAAGTACCTTGGGTTCTAACCTGTTGCCT (site GAAGTACCTAG) | 1.92 |
| GAAGTACCTTGGGTTCTAACCTGTTGCCT (site TAAGTACCTAG) | 0.873 |
| GAAGTCACTTGGGTTCTAACCTGTTGCCT (site GAAGTCACTAG) | 1.99 |
| GAAGTCACTTGGGTTCTAACCTGTTGCCT (site TAAGTCACTAG) | 1.6 |
| GAAGTCTCTTGGGTTCTAACCTGTTGCCT (site GAAGTCTCTAG) | 2.59 |
| GAAGTCTCTTGGGTTCTAACCTGTTGCCT (site GTAGTCCCTAG) | 0.0661 |
| GAATCGACTTGGGTTCTAACCTGTTGCCT (site AGGGTACCTCT) | 0.192 |
| GAATCGACTTGGGTTCTAACCTGTTGCCT (site GAATCGACTAG) | 0.421 |
| GAATCTTCTTGGGTTCTAACCTGTTGCTT (site CAATCGTCTAA) | 0.0978 |
| GAATCTTCTTGGGTTCTAACCTGTTGCTT (site GAATCTTCTAA) | 0.0983 |
| GACAAACCTTGGGTTCTAACCTGTTGCGG (site GACAAACCTCC) | 1.64 |
| GACAAACCTTGGGTTCTAACCTGTTGCGG (site GACACAACTCC) | 0.0381 |
| GACACAACTTGGGTTCTAACCTGTTGCGG (site GACAAACCTCC) | 0.0119 |
| GACACAACTTGGGTTCTAACCTGTTGCGG (site GACACAACTCC) | 1.14 |
| GACACACCTTGGGTTCTAACCTGTTGCAT (site GACACACCTAT) | 1.02 |
| GACACACCTTGGGTTCTAACCTGTTGCAT (site GTCACGCCTAT) | 0.0207 |
| GACACCTCTTGGGTTCTAACCTGTTGCCG (site GACACCTCTCG) | 1.12 |
| GACACCTCTTGGGTTCTAACCTGTTGCCG (site TCTGAAACTAA) | 0.157 |
| GACACCTCTTGGGTTCTAACCTGTTGCTT (site GACACCTCTAA) | 1.03 |
| GACACCTCTTGGGTTCTAACCTGTTGCTT (site GACACGTCTAG) | 0.461 |

| Sequence | recombinant barcode read abundance (log10) |
| --- | --- |
| GACACGCCTTGGGTTCTAACCTGTTGCTT (site GACACGCCTAA) | 0.201 |
| GACACGCCTTGGGTTCTAACCTGTTGCTT (site GACACGCCTAC) | 0.0239 |
| GACACGCCTTGGGTTCTAACCTGTTGCTT (site GACACGCCTAG) | 0.0922 |
| GACACGCCTTGGGTTCTAACCTGTTGCTT (site GACACGCCTAT) | 0.0718 |
| GACACTGCTTGGGTTCTAACCTGTTGCCT (site GAAACTGCTAG) | 0.274 |
| GACACTGCTTGGGTTCTAACCTGTTGCCT (site GACACTGCTAG) | 0.403 |
| GACACTGCTTGGGTTCTAACCTGTTGCCT (site GAGACTGCTAG) | 0.044 |
| GACACTGCTTGGGTTCTAACCTGTTGCCT (site GATACTGCTAG) | 0.233 |
| GACAGGCCTTGGGTTCTAACCTGTTGCGT (site CTGCTAGCTCT) | 0.278 |
| GACAGGCCTTGGGTTCTAACCTGTTGCGT (site GACAGGCCTAC) | 1.31 |
| GACATACCTTGGGTTCTAACCTGTTGCCT (site GACATACCTAG) | 0.794 |
| GACATACCTTGGGTTCTAACCTGTTGCCT (site GACCTACCTAG) | 0.273 |
| GACATACCTTGGGTTCTAACCTGTTGCCT (site GACGTACCTAG) | 0.412 |
| GACATACCTTGGGTTCTAACCTGTTGCCT (site GACTTACCTAG) | 0.251 |
| GACATCGCTTGGGTTCTAACCTGTTGCCT (site GACATCACTAG) | 0.0851 |
| GACATCGCTTGGGTTCTAACCTGTTGCCT (site GACATCCCTAG) | 0.0326 |
| GACATCGCTTGGGTTCTAACCTGTTGCCT (site GACATCGCTAG) | 1.64 |
| GACATCGCTTGGGTTCTAACCTGTTGCCT (site GACATCTCTAG) | 0.641 |
| GACCACTCTTGGGTTCTAACCTGTTGCCT (site AACCACTCTAG) | 1.4 |
| GACCACTCTTGGGTTCTAACCTGTTGCCT (site CACCACTCTAG) | 1.2 |
